Measured values from patent EP4692088A1, “COMPOUND ACTING AS WRN HELICASE INHIBITOR” (SHANGHAI JEYOU PHARMACEUTICAL CO., LTD., priority 2023, dated 2024).

Legend:
WRN enzyme = target: T1, WRN enzyme (Homo sapiens, UniProt Q14191); experiment: WRN helicase activity assay (unwinding of BHQ2/Cy5-labelled double-stranded DNA, fluorescence); assay type: biochemical; details: Table 3, 30 min pre-incubation, 30 min reaction
T1 construct: host or cells: eukaryotic cells (not further specified)
Description: The WRN enzyme used in the experiment has a His-TEV tag at the N-terminus and is expressed in eukaryotic cells with a purity of 90%. The two single-stranded DNAs used for assay are labeled with BHQ2 and Cy5, respectively. When two fluorophores are in close proximity (when the DNA is in a double-stranded state), no fluorescence signal is detected due to the quenching effect. WRN has helicase activity, which enables the unwinding of double-stranded DNA to form single strands, thereby generating a fluorescence signal.
Two labeled single-stranded DNA strands were annealed to form double-stranded DNA. Annealing buffer: 12 mM Tris (pH 8.0), 300 mM NaCl, 12 mM MgCl2, 2 mM DTT. Annealing program: 95°C, 5 min.
2× WRN enzyme (2 nM) and 2× substrate (100 nM double-stranded DNA, 1000 nM capture DNA, 100 µM ATP) were prepared using buffer (20 mM Bicine, 10 mM KCl, 1 mM MgCl2, 0.005% BSG, 1 mM TCEP, 0.1% F-127, pH 7.5). The test compound was dissolved in DMSO to 10 mM and was gradient-diluted using a 96-well V-bottom plate. 0.5 µL of compound was added to 25 µL of 2× WRN enzyme and incubated at room temperature for 30 min. 25 µL of 2× substrate was added, and the reaction was carried out at room temperature for 30 min. Detection was performed using a microplate reader with an excitation wavelength of 620 nm and an emission wavelength of 685 nm.
The concentration-effect curve was fitted using GraphPad Prism 8 software, and the compound concentration for 50% inhibition (IC50) was calculated. The percentage inhibition for each compound concentration was first calculated, and then the concentration-effect curve was fitted using the "log(inhibitor) vs. normalized response -- Variable slope" equation in GraphPad Prism 8 software to obtain the IC50. [formula] • Positive control: 25 µL 2× WRN enzyme + 0.5 µL DMSO + 25 µL 2× substrate • Negative control: 25 µL 2× buffer + 0.5 µL DMSO + 25 µL 2× substrate

LoVo = experiment: Cell proliferation assay (CellTiter-Glo), LoVo; assay type: cell-based; details: Homo sapiens, 120 h, 5 days incubation
Description: SW48 cells were plated at a density of 1,500 cells/well, and LoVo, HCT116, and SW620 cells were plated at a density of 800 cells/well in a 96-well cell culture plate, and cultured in a 37°C incubator overnight. The test compounds, which were gradient-diluted with DMSO, were added, and after incubation for 5 days, cell viability was detected using a CellTiter-Glo kit. The CellTiter-Glo reagent was equilibrated to room temperature, and an appropriate amount was added to the cell plate, followed by shaking at room temperature for 12 min. The luminescence signal was detected using a microplate reader.
The luminescence signal values of the DMSO-treated wells and cell-free wells were used as negative and positive controls, respectively, to calculate the inhibition rate of compound on cell proliferation. The concentration-inhibition curve was fitted using the "log(inhibitor) vs. normalized response -- Variable slope" equation in GraphPad Prism 8 software to obtain the IC50. [formula]

[1] = Pharmacokinetic test in mice; assay type: in vivo; details: mouse; CD-1 mice, male, oral gavage, 10 mg/kg, plasma
Description: CD-1 mice were taken as test animals. Example 4, Example 22, and Comparative Example HRO761 were given by gavage. The drug concentrations in mouse plasma at different time points were determined by LC-MS/MS to investigate the pharmacokinetic characteristics of the compounds of the present disclosure in mice.
• Experimental drugs: Example 4, Example 22, and Comparative Example HRO761; • Animals: CD-1 mice, male, 24-25 g, purchased from Shanghai Jihui Laboratory Animal Care Co.,Ltd.
An appropriate amount of Example 4, Example 22, and Comparative Example HRO761 was weighed and sequentially added to an appropriate amount of dimethyl sulfoxide, solutol, and saline (final solvent: 5% DMSO + 10% solutol + 85% saline). The mixture was vortexed and sonicated to prepare a 1.0 mg/mL dosing solution.
Three mice in gavage groups of Example 4, Example 22, and Comparative Example HRO761 were administered by oral gavage after overnight fasting (dose: 10 mg/kg, administration volume: 10 mL/kg), and the mice were fed 4 h after administration.
(§1) 0.04 mL of blood was collected from the animals before administration and at 0.083 h, 0.25 h, 0.5 h, 1 h, 2 h, 4 h, 6 h, 8 h, and 24 h after administration, and anticoagulated with sodium heparin. Blood samples were placed on ice after collection, and plasma was separated by centrifugation (centrifugation conditions: 8000 rpm, 5 min). The collected plasma was stored at -80°C before analysis.
LC-MS/MS was used to determine the content of the test compound in mouse plasma after intragastric administration.
(§2) Based on the calculated concentrations of the compounds in plasma at different time points, the pharmacokinetic parameters of Example 4, Example 22, and Comparative Example HRO761 in mice were calculated using winnonlin software. The pharmacokinetic parameters of Example 4, Example 22, and Comparative Example HRO761 of the present disclosure are shown in Table 13.

[2] = Pharmacokinetic test in rats; assay type: in vivo; details: rat; SD rats, male, oral gavage, 10 mg/kg, plasma
Description: SD rats were taken as test animals. Example 4, Example 15, and Comparative Example HRO761 were given by gavage. The drug concentrations in rat plasma at different time points were determined by LC-MS/MS to investigate the pharmacokinetic characteristics of Example 4, Example 15, and Comparative Example HRO761 in rats.
• Experimental drugs: Example 4, Example 15, and Comparative Example HRO761; • Animals: SD rats, male, 240-260 g, purchased from Shanghai Jihui Laboratory Animal Care Co.,Ltd.
An appropriate amount of Example 4, Example 15, and Comparative Example HRO761 was weighed and added to an appropriate amount of dimethyl sulfoxide, solutol, and saline (final solvent: 5% DMSO + 10% solutol + 85% saline). The mixture was vortexed and sonicated to prepare a 1.0 mg/mL dosing solution.
The rats in gavage groups (3 rats per group) of Example 4, Example 15, and Comparative Example HRO761 were administered by oral gavage after overnight fasting (dose: 10 mg/kg, administration volume: 10 mL/kg), and the rats were fed 4 h after administration.
as §1, with “0.2” for “0.04”
The contents of Example 4, Example 15, and Comparative Example HRO761 in rat plasma after oral administration were determined by LC-MS/MS.
as §2, with “15,” for “22,”, “rats” for “mice”, “14.” for “13.”

T1 sequence (Q14191 whole entry): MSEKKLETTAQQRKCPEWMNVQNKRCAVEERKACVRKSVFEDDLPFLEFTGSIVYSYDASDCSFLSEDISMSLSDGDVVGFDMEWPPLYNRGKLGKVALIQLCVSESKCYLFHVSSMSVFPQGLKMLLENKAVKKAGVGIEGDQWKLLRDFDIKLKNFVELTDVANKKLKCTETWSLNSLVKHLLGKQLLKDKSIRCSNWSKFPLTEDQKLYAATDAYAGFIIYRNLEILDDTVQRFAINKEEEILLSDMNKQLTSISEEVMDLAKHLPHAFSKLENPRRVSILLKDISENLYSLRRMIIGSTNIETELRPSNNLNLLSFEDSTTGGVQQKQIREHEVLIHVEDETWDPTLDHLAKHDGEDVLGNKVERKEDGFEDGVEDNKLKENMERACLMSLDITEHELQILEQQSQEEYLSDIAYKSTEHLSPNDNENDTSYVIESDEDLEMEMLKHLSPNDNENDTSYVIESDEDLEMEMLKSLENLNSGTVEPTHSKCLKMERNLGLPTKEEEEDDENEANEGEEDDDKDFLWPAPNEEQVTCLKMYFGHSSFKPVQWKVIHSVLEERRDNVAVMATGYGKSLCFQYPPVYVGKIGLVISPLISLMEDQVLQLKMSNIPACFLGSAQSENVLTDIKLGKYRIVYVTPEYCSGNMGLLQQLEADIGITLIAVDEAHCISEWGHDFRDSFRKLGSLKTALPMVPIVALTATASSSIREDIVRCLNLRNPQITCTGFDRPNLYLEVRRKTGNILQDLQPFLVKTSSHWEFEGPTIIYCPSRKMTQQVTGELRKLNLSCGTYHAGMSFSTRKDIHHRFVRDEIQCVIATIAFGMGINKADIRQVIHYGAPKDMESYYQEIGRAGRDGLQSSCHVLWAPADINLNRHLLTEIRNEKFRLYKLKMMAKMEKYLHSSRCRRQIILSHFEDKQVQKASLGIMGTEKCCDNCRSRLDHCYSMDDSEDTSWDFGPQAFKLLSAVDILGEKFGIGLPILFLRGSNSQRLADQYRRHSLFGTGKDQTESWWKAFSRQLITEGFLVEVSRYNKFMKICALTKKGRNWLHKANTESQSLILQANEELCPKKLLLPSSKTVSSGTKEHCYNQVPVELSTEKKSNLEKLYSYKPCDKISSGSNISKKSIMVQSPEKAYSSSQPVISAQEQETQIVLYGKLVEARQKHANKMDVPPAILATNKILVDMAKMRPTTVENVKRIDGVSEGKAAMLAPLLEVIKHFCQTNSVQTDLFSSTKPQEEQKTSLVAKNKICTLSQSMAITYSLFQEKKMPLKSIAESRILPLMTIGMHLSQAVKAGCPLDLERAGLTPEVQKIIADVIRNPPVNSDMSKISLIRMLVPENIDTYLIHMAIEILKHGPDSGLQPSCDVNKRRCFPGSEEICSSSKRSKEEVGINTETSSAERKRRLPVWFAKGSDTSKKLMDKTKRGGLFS

| SMILES | IC50 (WRN enzyme) [nM] | IC50 (LoVo) [nM] | AUC(0-inf) [1] [ng·h/mL] | Cmax [1] [ng/mL] | AUC(0-inf) [2] [ng·h/mL] | Cmax [2] [ng/mL] |
| --- | --- | --- | --- | --- | --- | --- |
| CCc1c(N2CCN(C(=O)c3ncnc(C)c3O)CC2)c(=O)c2nn(C3=CCOCC3)nc2n1CC(=O)Nc1ccc(C(F)(F)F)cc1Cl [Example 4] | 60.9 | 105 | 51500 | 24800 | 170000 | 19200 |
| CCc1c(N2CCN(C(=O)c3ncnc(C)c3O)CC2)c(=O)c2nn(C3=CCOCC3)nc2n1CC(=O)Nc1cc(F)c(Cl)cc1Cl [Example 22] | 72.1 | – | 83400 | 24600 | – | – |
| CCc1c(N2CCN(C(=O)c3ncnc(C)c3O)CC2)c(=O)c2nn(C3=CCOCC3)nc2n1CC(=O)Nc1cc(F)c(C(F)(F)F)cc1Cl [Example 15] | 70.2 | – | – | – | 46400 | 9020 |
